In PubChem BioAssay (NCI) one finds TGI data, which are given here for eleven compounds.

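All cell lines were grown in 96-well plates and treated with compound for 48 hours. TGI is the concentration that stops growth completely.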

Test systems include SF-539 CNS; MDA-N; UACC-257 melanoma; UACC-62 melanoma; SNB-19 CNS; SK-MEL-5 melanoma; MCF7 breast; MDA-MB-231 breast; U251 CNS; SK-OV-3 ovarian; EKVX NSCLC; HT29 colon; SW-620 colon; CCRF-CEM leukemia; NCI-H522 lung; OVCAR-8 ovarian; HCC-2998 colon; KM12 colon; SK-MEL-28 melanoma; T-47D breast.
Common to all, as to assay: NCI-60 cell line screen, 48 h

For `CCOC(CN=C=S)OCC`, the TGI in the test with SF-539 CNS, with MDA-N, in the test on UACC-257 melanoma, in the test on UACC-62 melanoma, with SNB-19 CNS and in the test with SK-MEL-5 melanoma was greater than 10 µM throughout. Also, the TGI in the test on MCF7 breast, in the test with MDA-MB-231 breast, in the test on U251 CNS, in the test on SK-OV-3 ovarian, in the test with EKVX NSCLC and with HT29 colon was greater than 10 µM each time. For the same compound, the TGI with SW-620 colon, with CCRF-CEM leukemia, in the test on NCI-H522 lung, with OVCAR-8 ovarian, in the test on HCC-2998 colon and in the test on KM12 colon was greater than 10 µM in each case. Besides, the TGI in the test on SK-MEL-28 melanoma and with T-47D breast was greater than 10 µM in each case.
With `CC(=O)N1C(c2[nH]c3ccccc3c2-c2ccccc2)CCN1c1ccccc1` (configuration not stated), the TGI with SF-539 CNS, with MDA-N, in the test with UACC-257 melanoma, in the test on SNB-19 CNS, with SK-MEL-5 melanoma and with MCF7 breast was greater than 10 µM each time. Besides, the TGI with MDA-MB-231 breast, in the test with SK-OV-3 ovarian, with EKVX NSCLC, with HT29 colon, in the test with SW-620 colon and in the test with CCRF-CEM leukemia was greater than 10 µM throughout. The TGI in the test on NCI-H522 lung, in the test on OVCAR-8 ovarian, in the test with HCC-2998 colon, in the test on SK-MEL-28 melanoma and in the test with T-47D breast was greater than 10 µM throughout.
For the compound `CCCC1(NC(=O)C(F)(F)F)CC(OC)OC2COC(c3ccccc3)OC21` (configuration not stated), the TGI is greater than 100 µM in the test on SF-539 CNS; greater than 100 µM in the test on MDA-N; greater than 100 µM with UACC-257 melanoma; greater than 100 µM in the test with UACC-62 melanoma; greater than 100 µM in the test on SNB-19 CNS; 45.2 µM with SK-MEL-5 melanoma. For the same compound, the TGI with MCF7 breast, in the test on MDA-MB-231 breast, with U251 CNS, in the test with SK-OV-3 ovarian, in the test on EKVX NSCLC and with SW-620 colon was greater than 100 µM throughout. In addition, the TGI in the test on CCRF-CEM leukemia, in the test on NCI-H522 lung, in the test with OVCAR-8 ovarian, in the test with HCC-2998 colon, in the test with SK-MEL-28 melanoma and in the test with T-47D breast was greater than 100 µM in each case.
On to `O=Nc1c(O)cc(Nc2ccc(Br)cc2)c2ccccc12`, for which the TGI is greater than 100 µM in the test with SF-539 CNS; 3.41 µM in the test with MDA-N; 3.33 µM in the test with UACC-257 melanoma; 11.8 µM in the test on SNB-19 CNS; 3.15 µM in the test with SK-MEL-5 melanoma; 17.8 µM in the test on MCF7 breast. For the same compound, the TGI in the test on MDA-MB-231 breast was 48.3 µM; in the test with U251 CNS, 40.8 µM; in the test with SK-OV-3 ovarian it was 30.8 µM; in the test with EKVX NSCLC, greater than 100 µM; in the test with HT29 colon, 28.1 µM; in the test with SW-620 colon it was 35 µM. Moreover, the TGI was greater than 100 µM in the test on CCRF-CEM leukemia; greater than 100 µM with NCI-H522 lung; 37.2 µM in the test on OVCAR-8 ovarian; 19.4 µM with HCC-2998 colon; 23.1 µM with KM12 colon; 4.2 µM in the test on SK-MEL-28 melanoma. This compound also came in with a TGI in the test with T-47D breast greater than 73.8 µM.
For `CC(=O)N1C(=O)/C(=C\C(=O)c2ccc([N+](=O)[O-])cc2)c2ccccc21`, the TGI in the test with SF-539 CNS is 49.8 µM; in the test on MDA-N it was 49.2 µM; with UACC-257 melanoma, 40.9 µM; in the test with UACC-62 melanoma it was 38.1 µM; with SNB-19 CNS it was greater than 100 µM; with SK-MEL-5 melanoma, greater than 100 µM. Moreover, the TGI in the test with MCF7 breast is 69.7 µM; in the test on MDA-MB-231 breast, 84.5 µM; in the test with U251 CNS, 46.4 µM; in the test with SK-OV-3 ovarian, greater than 100 µM; with EKVX NSCLC, 51.6 µM; in the test with HT29 colon, 34.6 µM. Also, the TGI is 16.9 µM in the test with CCRF-CEM leukemia; 30.9 µM with NCI-H522 lung; greater than 100 µM with OVCAR-8 ovarian; 36.7 µM with HCC-2998 colon; 55.5 µM in the test on KM12 colon; 61.9 µM with T-47D breast.
Take `O=C(/C=C/c1ccccc1)/C=N/N1C(=S)N(c2ccccc2)C(=Nc2ccccc2)C1=Nc1ccccc1`: the TGI with SF-539 CNS, in the test on MDA-N, with UACC-257 melanoma, in the test with UACC-62 melanoma, in the test with SNB-19 CNS and with SK-MEL-5 melanoma was greater than 100 µM each time. Moreover, the TGI in the test on MCF7 breast, in the test with MDA-MB-231 breast, with U251 CNS, in the test on SK-OV-3 ovarian, with EKVX NSCLC and with HT29 colon was greater than 100 µM in each case. Also, the TGI is greater than 100 µM in the test with SW-620 colon; 62.9 µM in the test on NCI-H522 lung; greater than 100 µM in the test with OVCAR-8 ovarian; greater than 100 µM with HCC-2998 colon; greater than 100 µM in the test with KM12 colon; greater than 100 µM in the test on SK-MEL-28 melanoma. Besides, the TGI with T-47D breast is greater than 100 µM.
`O=C1c2c(ccc3c2CCCC3)CC12Cc1ccc3c(c1C2=O)CCCC3`: the TGI in the test with SF-539 CNS, in the test with MDA-N, in the test with UACC-257 melanoma, in the test on SNB-19 CNS, in the test on SK-MEL-5 melanoma and with MCF7 breast was greater than 100 µM in each case. The TGI in the test with MDA-MB-231 breast, in the test with U251 CNS, in the test on SK-OV-3 ovarian, with EKVX NSCLC, in the test on HT29 colon and in the test on SW-620 colon was greater than 100 µM in each case. Further, the TGI with CCRF-CEM leukemia, with NCI-H522 lung, in the test with OVCAR-8 ovarian, in the test on HCC-2998 colon, in the test with SK-MEL-28 melanoma and in the test with T-47D breast was greater than 100 µM each time.
Regarding `CCNCCNc1c2ccccc2nc2ccccc12`, the TGI in the test on SF-539 CNS was found to be 2.21 µM; with MDA-N, 2.81 µM; with UACC-257 melanoma, 3.46 µM; with UACC-62 melanoma, 3.26 µM; with SNB-19 CNS, 4.69 µM; in the test with SK-MEL-5 melanoma, 7.41 µM. Besides, the TGI is 3.4 µM in the test with MCF7 breast; 3.02 µM in the test on MDA-MB-231 breast; 12.2 µM in the test on SK-OV-3 ovarian; 21.9 µM with EKVX NSCLC; greater than 100 µM with HT29 colon; 2.84 µM in the test with SW-620 colon. The TGI was 8.63 µM with CCRF-CEM leukemia; 4.69 µM with NCI-H522 lung; 7.06 µM in the test on OVCAR-8 ovarian; 1.09 µM in the test with HCC-2998 colon; 4.79 µM in the test with KM12 colon; 8.41 µM in the test on T-47D breast.
Regarding `CC(=O)N1C(Nc2ccccn2)CCN1c1ccccc1` (configuration not stated), the TGI in the test on SF-539 CNS, in the test with MDA-N, in the test on UACC-257 melanoma, in the test with SNB-19 CNS, with SK-MEL-5 melanoma and in the test on MCF7 breast was greater than 10 µM each time. The TGI in the test on MDA-MB-231 breast, in the test with SK-OV-3 ovarian, in the test on EKVX NSCLC, in the test on HT29 colon, in the test on SW-620 colon and in the test on CCRF-CEM leukemia was greater than 10 µM in each case. The TGI with NCI-H522 lung, with OVCAR-8 ovarian, with HCC-2998 colon, in the test with SK-MEL-28 melanoma and with T-47D breast was greater than 10 µM in each case.
In the case of `CN(C)CCCNC(=O)CCNC(=O)c1cc(NC(=O)c2cc(NC(=O)c3cc(NC(=O)c4nc(NC(=O)CCCNC(=O)c5cc(NC(=O)c6cc(NC(=O)c7cc(NC(=O)c8nccn8C)cn7C)cn6C)cn5C)cn4C)cn3C)cn2C)cn1C`, the TGI in the test with SF-539 CNS, in the test with MDA-N, in the test on UACC-257 melanoma, with SNB-19 CNS, in the test on SK-MEL-5 melanoma and in the test with MCF7 breast was greater than 100 µM each time. In addition, the TGI in the test with MDA-MB-231 breast, in the test with U251 CNS, with SK-OV-3 ovarian, in the test on EKVX NSCLC, with HT29 colon and in the test on SW-620 colon was greater than 100 µM throughout. For the same compound, the TGI in the test with CCRF-CEM leukemia, in the test with NCI-H522 lung, with OVCAR-8 ovarian, in the test on HCC-2998 colon, with KM12 colon and in the test on SK-MEL-28 melanoma was greater than 100 µM each time. In the test on T-47D breast, this compound showed a TGI greater than 100 µM.
With `O=C(/C=C(\O)c1ccccc1)C(=O)NNc1ccc([N+](=O)[O-])cc1[N+](=O)[O-]`, the TGI in the test on SF-539 CNS came to 33.5 µM; in the test on MDA-N, 78.1 µM; with UACC-257 melanoma, 99.8 µM; in the test with UACC-62 melanoma, 31.1 µM; with SNB-19 CNS, 74.6 µM; in the test on SK-MEL-5 melanoma, 60.1 µM. The TGI with MCF7 breast was greater than 100 µM; with MDA-MB-231 breast, 67.6 µM; in the test with U251 CNS it was 28.1 µM; in the test with SK-OV-3 ovarian, 41.6 µM; with EKVX NSCLC it was 56.3 µM; with SW-620 colon, 34 µM. Further, the TGI in the test on CCRF-CEM leukemia came out at 43.5 µM; in the test with NCI-H522 lung it was 82.4 µM; in the test with OVCAR-8 ovarian, 53.6 µM; in the test with HCC-2998 colon, 30 µM; in the test with KM12 colon it was 33.7 µM; in the test with SK-MEL-28 melanoma, 60.8 µM. Besides, in the test on T-47D breast, the TGI was 48.5 µM.
